For one experiment, the target named is IDH1 R132H (Homo sapiens (Human), UniProt O75874, R132H). Briefly: Assays for IDH1 R132H Inhibitors (NADPH/aKG, resazurin detection). It is filed as biochemical. As to conditions: IDH1 R132H enzyme, Table 3; read-out: R132H IC50. The gist of the method: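 Substrate mix held 8 uM NADPH plus 2 mM aKG; buffer was 20 mM Tris pH 7.5 with 150 mM NaCl, 10 mM MgCl2, 0.03% BSA. After 50 min room-temperature reaction, NADPH remaining was detected with 30 μM resazurin mix over 5 min.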
(Resazurin is reduced to fluorescent resorufin, in cell work by metabolically active cells.)

A further experiment relates to U87R132H (U87MG) cells. The experiment is described as follows: Cellular assay for IDH1m inhibitors: inhibition of 2-HG production in U87MG (U87R132H) cells (LC-MS). The experiment is classed as cell-based. To be noted: 48 hours. In short, it runs like this:
(§1)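 HT1080 or U87MG cells seeded at 5000 cells/well overnight, then compound added (final DMSO 0.2%) and incubated 48 hours at 37 C. 2-HG in the medium quantified by LC-MS; viability checked by CellTiter-Glo luminescence at 72 hours post compound.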

The test system of the next experiment is HT1080 cells. Briefly: Cellular assay for IDH1m inhibitors: inhibition of 2-HG production in HT1080 cells (LC-MS). The experiment is classed as cell-based. In short, it runs like this: as §1
Where [1] appears, read: Homo sapiens, HT-1080, 48 hours.

Sequence of IDH1 R132H (O75874 whole entry R132H): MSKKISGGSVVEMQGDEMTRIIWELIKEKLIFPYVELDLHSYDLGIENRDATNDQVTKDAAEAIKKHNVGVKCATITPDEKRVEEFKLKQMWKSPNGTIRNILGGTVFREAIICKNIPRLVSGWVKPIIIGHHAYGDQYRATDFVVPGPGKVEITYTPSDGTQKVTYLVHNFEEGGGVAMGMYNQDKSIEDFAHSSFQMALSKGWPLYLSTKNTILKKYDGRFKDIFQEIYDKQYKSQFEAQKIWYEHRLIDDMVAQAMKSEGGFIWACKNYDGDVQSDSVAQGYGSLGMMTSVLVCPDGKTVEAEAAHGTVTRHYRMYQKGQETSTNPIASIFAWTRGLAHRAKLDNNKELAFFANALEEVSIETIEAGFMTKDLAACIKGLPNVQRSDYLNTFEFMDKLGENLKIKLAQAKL

For orientation: IC50 means the midpoint of a concentration-inhibition curve. For `CCOC(=O)[C@@H]1C[C@H]1C(=O)N1CCN(c2nc(C3CC3)c3c(c2C#N)CC(C)(C)OC3)C[C@H]1C(C)C` [Compound 465, (1R,2R)-ethyl 2-((R)-4-(5-cyano-8-cyclopropyl-3,3-dimethyl-3,4-dihydro-1H-pyrano[3,4-c]pyridin-6-yl)-2-isopropylpiperazine-1-carbonyl)cyclopropanecarboxylate], the IC50 at IDH1 R132H was less than 500 nM; in the experiment with U87R132H (U87MG) cells (Homo sapiens, U-87 MG), less than 500 nM; in the experiment with HT1080 cells (setting [1]) it was 500 to 1000 nM.
On to `[2H]C([2H])([2H])C([2H])(C([2H])([2H])[2H])[C@@]1([2H])N(C(=O)CC(F)(F)F)C([2H])([2H])C([2H])([2H])N(c2nc(C3CC3)c3c(c2C#N)CC(C)(C)OC3)C1([2H])[2H]` [Compound 452, (R)-8-cyclopropyl-6-(2,2,3,3,5,6,6-heptadeuterio-5-(perdeuteriopropan-2-yl)-4-(3,3,3-trifluoropropanoyl)piperazin-1-yl)-3,3-dimethyl-3,4-dihydro-1H-pyrano[3,4-c]pyridine-5-carbonitrile], for which the half-maximal inhibitory concentration (IC50) at IDH1 R132H is less than 500 nM; in the experiment with U87R132H (U87MG) cells (Homo sapiens, U-87 MG), 500 to 1000 nM; with HT1080 cells (setting [1]), 1000 to 10000 nM.
With `CC(C)[C@@H]1CN(c2nc(C3CC3)c3c(c2C#N)CC(C)(C)OC3)CCN1C(=O)CCO` [Compound 429, (R)-8-cyclopropyl-6-(4-(3-hydroxypropanoyl)-3-isopropylpiperazin-1-yl)-3,3-dimethyl-3,4-dihydro-1H-pyrano[3,4-c]pyridine-5-carbonitrile], the half-maximal inhibitory concentration (IC50) at IDH1 R132H was less than 500 nM; in the experiment with U87R132H (U87MG) cells (Homo sapiens, U-87 MG), less than 500 nM; with HT1080 cells (setting [1]), less than 500 nM.
Regarding `CS(=O)(=O)N1CCc2c(C#N)c(N3CCN(C(=O)C4CC4)[C@H](C4CC4)C3)nc(C3CC3)c2C1` [Compound 481, (R)-3-(4-(cyclopropanecarbonyl)-3-cyclopropylpiperazin-1-yl)-1-cyclopropyl-7-(methylsulfonyl)-5,6,7,8-tetrahydro-2,7-naphthyridine-4-carbonitrile], the IC50 is less than 500 nM on IDH1 R132H; 500 to 1000 nM with U87R132H (U87MG) cells (Homo sapiens, U-87 MG); 1000 to 10000 nM with HT1080 cells (setting [1]).
As to `CSCC(=O)N1CCN(c2nc(C3CC3)c3c(c2C#N)CC(C)(C)OC3)C[C@H]1C(C)C` [Compound 445, (R)-8-cyclopropyl-6-(3-isopropyl-4-(2-(methylthio)acetyl)piperazin-1-yl)-3,3-dimethyl-3,4-dihydro-1H-pyrano[3,4-c]pyridine-5-carbonitrile], the IC50 on IDH1 R132H was less than 500 nM; in the experiment on U87R132H (U87MG) cells (Homo sapiens, U-87 MG), less than 500 nM; in the experiment with HT1080 cells (setting [1]), less than 500 nM.
`[2H]C1([2H])CN(c2nc(C3CC3)c3c(c2C#N)CC(C)(C)OC3)C([2H])([2H])C([2H])(C([2H])(C([2H])([2H])[2H])C([2H])([2H])[2H])N1C(=O)CC(F)(F)F` [Compound 476, (R)-8-cyclopropyl-3,3-dimethyl-6-(2,2,3,5,5-pentadeuterio-3-(1,1,1,3,3,3-hexadeuteriopropan-2-yl)-4-(3,3,3-trifluoropropanoyl)piperazin-1-yl)-3,4-dihydro-1H-pyrano[3,4-c]pyridine-5-carbonitrile]: the 50% inhibitory concentration (IC50) at IDH1 R132H is less than 500 nM; with U87R132H (U87MG) cells (Homo sapiens, U-87 MG), 1000 to 10000 nM; in the experiment on HT1080 cells (setting [1]), 1000 to 10000 nM.
`CC(C)[C@@H]1CN(c2nc(C3CC3)c3c(c2C#N)CC(C)(C)OC3)CCN1C(=O)c1ccon1` [Compound 427, (R)-8-cyclopropyl-6-(3-isopropyl-4-(isoxazole-3-carbonyl)piperazin-1-yl)-3,3-dimethyl-3,4-dihydro-1H-pyrano[3,4-c]pyridine-5-carbonitrile]: the 50% inhibitory concentration (IC50) on IDH1 R132H was in the range of 500 to 1000 nM; in the experiment on U87R132H (U87MG) cells (Homo sapiens, U-87 MG) it was 1000 to 10000 nM; with HT1080 cells (setting [1]) it was 1000 to 10000 nM.
`C=CC(=O)N1CCc2c(C#N)c(N3CCN(C(=O)CCO)[C@H](C4CC4)C3)nc(C3CC3)c2C1` [Compound 498, (R)-7-acryloyl-1-cyclopropyl-3-(3-cyclopropyl-4-(3-hydroxypropanoyl)piperazin-1-yl)-5,6,7,8-tetrahydro-2,7-naphthyridine-4-carbonitrile]: the IC50 on IDH1 R132H was less than 500 nM; in the experiment on U87R132H (U87MG) cells (Homo sapiens, U-87 MG), less than 500 nM; in the experiment on HT1080 cells (setting [1]) it was less than 500 nM.
Turning to `COC(=O)[C@@H]1C[C@H]1C(=O)N1CCN(c2nc(C3CC3)c3c(c2C#N)CC(C)(C)OC3)C[C@H]1C(C)C` [Compound 454], the IC50 at IDH1 R132H was less than 500 nM; with U87R132H (U87MG) cells it was 500 to 1000 nM; in the experiment with HT1080 cells (48 hours) it was 500 to 1000 nM.
